# Test: ability of solvent combination to dissolve hormones
# Assay type: physicochemical
# Details: combination of ethoxy diglycol and propylene glycol in any ratio, compared with either solvent alone
smiles,measurement,value
C[C@]12CC[C@H]3[C@@H](CCC4=CC(=O)CC[C@@]43C)[C@@H]1CC[C@@H]2O [testosterone],ability to dissolve,better than using any of the solvents alone

# From patent publication US20150196568A1, “SYSTEM FOR USE BY COMPOUNDING PHARMACISTS TO PRODUCE HORMONE REPLACEMENT MEDICINE CUSTOMIZED FOR EACH CUSTOMER” (priority 2003, published 2015)
